Measured values: patent US20250091995A1, “STABLE CRYSTAL OF 4-OXOQUINOLINE COMPOUND” (Japan Tobacco Inc., priority 2004, published 2025)
Values after ≈ are worked out from the molar mass of the structure shown.

Tests used:
Type in all cases: physicochemical
[1] = Stability test under preservation conditions (appearance, HPLC purity, XRD, DSC); details: for Stability under various preservation conditions (overall evaluation): all preservation conditions; for Purity: HPLC
Description: A sample was fixed to an aluminum cell, and the measurement was performed using an X-ray powder diffractometer (RINT 2000/PC Ultima^+, manufactured by Rigaku Corporation, X-ray source: Cu-Kα1 ray, tube voltage: 40 kV, tube electric current: […], scan speed: 5° per min, step width: 0.02°, diffraction angle: 5-40°), based on which the diffraction patterns were obtained. Crystal form I and crystal form II were subjected to measurement using a Differential Scanning Calorimetry (DSC) measurement apparatus (DSC8240, manufactured by Rigaku Corporation), under atmosphere, measurement sample 5±1 mg, temperature rise rate: 10° C./min, aluminum open pan, and alumina oxide as a reference. The enthalpy and extrapolated onset temperature at an endothermic peak on the obtained DSC curve were determined. Crystal form III was subjected to measurement using a DSC measurement apparatus (DSC8240, manufactured by Rigaku Corporation), under atmosphere, measurement sample 5.0+0.5 mg, temperature rise rate: 5° C./min, aluminum closed pan, and alumina oxide as a reference. The enthalpy and extrapolated onset temperature at an endothermic peak on the obtained DSC curve were determined. Each sample (crystal form I and crystal form II, ca. 10 mg) was dissolved in acetonitrile to make an amount of 10 mL and used as a sample solution. This solution ([…]) was applied to high performance liquid chromatography (HPLC) under the following conditions. The peak area of each sample solution was measured by automatic integration, and the purity was determined by the following formula. The purity is shown in the Tables 5 and 6 below. • Detector: UV absorptiometer (wavelength: 259 nm) • Column: CAPCELL PAK MG (inner diameter […], length 15 cm, particle size 5 μm, manufactured by Shiseido Co., Ltd. • Column temperature: constant temperature around 40° C. • Mobile phase A: trifluoroacetic acid solution (1:1000) • Mobile phase B: solution of trifluoroacetic acid in acetonitrile (1:1000) • Gradient program: As shown in the following Table 2, the mixing ratio of mobile phase A and mobile phase B is changed to control concentration gradient. A sample (crystal form III, ca. 50 mg) was dissolved in a mixture (4:1) of mobile phase B and mobile phase A to make an amount of 50 mL, which was used as a sample solution. This solution (1 mL) was precisely measured and a mixture (4:1) of mobile phase B and mobile phase A was added to precisely make an amount of 100 mL, which was used as a standard solution. The sample solution and standard solution ([…]) was applied to high performance liquid chromatography (HPLC) under the following conditions. The peak area of each solution was measured by automatic integration, and the purity was determined by the following formula. The purity is shown in the Table 7 below. • Detector: UV absorptiometer (wavelength: 259 nm) • Column: Waters XTerra MC C18 ([…], manufactured by Waters) • Column temperature: constant temperature around 40° C. • Mobile phase A: phosphoric acid is added to dipotassium hydrogenphosphate solution (1>1149) to adjust pH to 7.0 • Mobile phase B: acetonitrile • Gradient program: As shown in the following Table 3, the mixing ratio of mobile phase A and mobile phase B is changed to control concentration gradient. A stability test of each sample was performed under the following preservation conditions. The results of crystal form I are shown in Table 5, the results of crystal form II are shown in Table 6, and the results of crystal form III are shown in Table 7.

[2] = Solubility test in various test solutions and pHs
Description: This test aims at measurement of solubility of the crystal in various test solutions and under various pHs. The solubility is one of the indices of the stability of the above-mentioned crystal form I, crystal form II and crystal form III and can be used also as a reference indices of absorbability of crystal form by living organisms. Each sample (crystal form I type I, crystal form II and crystal form III, ca. 10 mg) was placed in a 10 mL centrifuge tube together with the following test solution (5 mL) and shaken with a shaker (SR-1M; manufactured by […] Co., Ltd.) for 14 hours. After shaking, the mixture was centrifuged (3000 rpm, 20 min) and the supernatant was filtered through 0.2 μm pore size-13 mm diameter polytetrafluoroethylene disk filter (Millex-LG; manufactured by Millipore Corporation). The measurement was performed by high performance liquid chromatography (HPLC).

[3] = Thermal analysis (DSC): enthalpy and extrapolated onset temperature at endothermic peak; details: for Endothermic peak Enthalpy / Endothermic peak Extrapolated onset temperature: crystal forms I and II 10° C./min, aluminum open pan, crystal form III 5° C./min, aluminum closed pan
Source text: This test aims at the measurement of the enthalpy and extrapolated onset temperature at an endothermic peak on the Differential Scanning Calorimetry (DSC) measurement curve. These values are among the indices of the stability of the above-mentioned crystal form I, crystal form II and crystal form III, and can be used as an index to specify the crystal form. Crystal form I and crystal form II were subjected to measurement using a Differential Scanning Calorimetry (DSC) measurement apparatus (DSC8240, manufactured by Rigaku Corporation), under atmosphere, measurement sample 5±1 mg, temperature rise rate: 10° C./min, aluminum open pan, and alumina oxide as a reference. The enthalpy and extrapolated onset temperature at an endothermic peak on the obtained DSC curve were determined. Crystal form III was subjected to measurement using a DSC measurement apparatus (DSC8240, manufactured by Rigaku Corporation), under atmosphere, measurement sample 5.0+0.5 mg, temperature rise rate: 5° C./min, aluminum closed pan, and alumina oxide as a reference. The enthalpy and extrapolated onset temperature at an endothermic peak on the obtained DSC curve were determined.

[4] = condition 2: 80° C., closed container, preserved for 3 days
[5] = condition 3: 80° C., open container, preserved for 3 days
[6] = condition 4: 60° C., closed container, preserved for 3 weeks
[7] = condition 5: 60° C., open container, preserved for 3 weeks
[8] = condition 6: 60° C./75% R.H., closed container, preserved for 3 weeks
[9] = Japanese Pharmacopoeia 1st fluid, pH 1.2, shaken 14 hours
[10] = Japanese Pharmacopoeia 2nd fluid, pH 6.8, shaken 14 hours
[11] = McIlvaine buffer pH 2.2, shaken 14 hours
[12] = McIlvaine buffer pH 4, shaken 14 hours
[13] = McIlvaine buffer pH 5, shaken 14 hours
[14] = McIlvaine buffer pH 6.8, shaken 14 hours
[15] = McIlvaine buffer pH 8, shaken 14 hours
[16] = Purified water, shaken 14 hours
[17] = condition 6: 60° C./75% R.H., open container, preserved for 3 weeks

Row | Stability under various preservation conditions (overall evaluation) [1] | Purity ([1]; condition 1: Initial) [%] | Appearance [1, 4] | XRD (X-ray powder diffraction pattern vs initial) [1, 4] | Purity [1, 4] [%] | Appearance [1, 5] | XRD (X-ray powder diffraction pattern vs initial) [1, 5] | Purity [1, 5] [%] | Appearance [1, 6] | XRD (X-ray powder diffraction pattern vs initial) [1, 6] | Purity [1, 6] [%] | Appearance [1, 7] | XRD (X-ray powder diffraction pattern vs initial) [1, 7] | Purity [1, 7] [%] | Solubility [2, 9] [µg/mL] | Solubility [2, 10] [µg/mL] | Solubility [2, 11] [µg/mL] | Solubility [2, 12] [µg/mL] | Endothermic peak Enthalpy [3] [J/g] | Endothermic peak Extrapolated onset temperature [3] [°C] | Compound | other results
1 | extremely stable | 98.71 | No change | No change | 98.68 | No change | No change | 98.69 | No change | No change | 98.67 | No change | No change | 98.66 | <0.1 | 2.4 (≈ 5.36 µM) | <0.1 | <0.1 | 81.404 | 162.1 | COc1cc2c(cc1Cc1cccc(Cl)c1F)c(=O)c(C(=O)O)cn2[C@H](CO)C(C)C [Crystal form III, 6-(3-chloro-2-fluorobenzyl)-1-[(S)-1-hydroxymethyl-2-methylpropyl]-7-methoxy-4-oxo-1,4-dihydroquinoline-3-carboxylic acid] | Appearance [1, 8]: No change; XRD (X-ray powder diffraction pattern vs initial) [1, 8]: No change; Purity [1, 8]: 98.65%; Solubility [2, 13]: <0.1 µg/mL; Solubility ([2]; McIlvaine buffer pH 6, shaken 14 hours): 0.7 µg/mL (≈ 1.56 µM); Solubility [2, 14]: 0.7 µg/mL (≈ 1.56 µM); Solubility [2, 15]: 23 µg/mL (≈ 51.4 µM); Solubility [2, 16]: <0.1 µg/mL; Stability among three crystal forms judged from enthalpy and extrapolated onset temperature [3]: most stable form
2 | extremely stable | 98.9 | No change | No change | 98.9 | No change | No change | 98.8 | No change | No change | 98.9 | No change | No change | 98.8 | 0.9 (≈ 2.01 µM) | 5.8 (≈ 12.9 µM) | 1.9 (≈ 4.24 µM) | 0.8 (≈ 1.79 µM) | 53.542 | 151.2 | COc1cc2c(cc1Cc1cccc(Cl)c1F)c(=O)c(C(=O)O)cn2[C@H](CO)C(C)C [Crystal form II, 6-(3-chloro-2-fluorobenzyl)-1-[(S)-1-hydroxymethyl-2-methylpropyl]-7-methoxy-4-oxo-1,4-dihydroquinoline-3-carboxylic acid] | Appearance [1, 17]: No change; XRD (X-ray powder diffraction pattern vs initial) [1, 17]: No change; Purity [1, 17]: 98.9%; Solubility [2, 13]: 0.4 µg/mL (≈ 0.893 µM); Solubility [2, 14]: 6.3 µg/mL (≈ 14.1 µM); Solubility [2, 15]: 84 µg/mL (≈ 188 µM); solubility at 14 h ([2]; McIlvaine buffer, pH 6, aqueous buffer, thermodynamic from solid, McIlvaine buffer pH 6, shaken 14 hours): 1 µg/mL (≈ 2.23 µM); Solubility [2, 16]: 0.5 µg/mL (≈ 1.12 µM); Solubility compared between crystal forms ([2]; all test solutions of Table 4): higher solubility than crystal form III

Row | Compound | Stability under various preservation conditions (overall evaluation) [1] | Purity ([1]; condition 1: Initial) [%] | Appearance [1, 4] | XRD (X-ray powder diffraction pattern vs initial) [1, 4] | Purity [1, 4] [%] | Appearance [1, 5] | XRD (X-ray powder diffraction pattern vs initial) [1, 5] | Purity [1, 5] [%] | Appearance [1, 6] | XRD (X-ray powder diffraction pattern vs initial) [1, 6] | Purity [1, 6] [%] | Appearance [1, 7] | XRD (X-ray powder diffraction pattern vs initial) [1, 7] | Purity [1, 7] [%] | Solubility [2, 9] [µg/mL] | Solubility [2, 10] [µg/mL] | Solubility [2, 11] [µg/mL] | Solubility [2, 12] [µg/mL] | Endothermic peak Enthalpy [3] [J/g] | Endothermic peak Extrapolated onset temperature [3] [°C] | other results
3 | COc1cc2c(cc1Cc1cccc(Cl)c1F)c(=O)c(C(=O)O)cn2[C@H](CO)C(C)C [Crystal form I, 6-(3-chloro-2-fluorobenzyl)-1-[(S)-1-hydroxymethyl-2-methylpropyl]-7-methoxy-4-oxo-1,4-dihydroquinoline-3-carboxylic acid] | unstable | 99.1 | No change | No change | 99.1 | No change | a part of the sample showed crystal transition to crystal form II | 99.1 | No change | No change | 99.1 | No change | a part of the sample showed crystal transition to crystal form II | 99.1 |  |  |  |  | 51.080 | 150.3 | Appearance [1, 17]: No change; XRD (X-ray powder diffraction pattern vs initial) [1, 17]: No change; Purity [1, 17]: 99.1%
